Laboratory results as given in patent EP4559908A1, “HETEROARYL DERIVATIVE COMPOUND AND USE THEREOF” (S2CBio Inc., priority 2022, dated 2024).

Target: T1, human ANO6 (variant 5) (Homo sapiens, UniProt Q4KMQ2)
T1 construct: expressed in transfected cells; host or cells: Fischer rat thyroid (FRT) cells
T1 sequence (Q4KMQ2 1-931 isoform Q4KMQ2-2): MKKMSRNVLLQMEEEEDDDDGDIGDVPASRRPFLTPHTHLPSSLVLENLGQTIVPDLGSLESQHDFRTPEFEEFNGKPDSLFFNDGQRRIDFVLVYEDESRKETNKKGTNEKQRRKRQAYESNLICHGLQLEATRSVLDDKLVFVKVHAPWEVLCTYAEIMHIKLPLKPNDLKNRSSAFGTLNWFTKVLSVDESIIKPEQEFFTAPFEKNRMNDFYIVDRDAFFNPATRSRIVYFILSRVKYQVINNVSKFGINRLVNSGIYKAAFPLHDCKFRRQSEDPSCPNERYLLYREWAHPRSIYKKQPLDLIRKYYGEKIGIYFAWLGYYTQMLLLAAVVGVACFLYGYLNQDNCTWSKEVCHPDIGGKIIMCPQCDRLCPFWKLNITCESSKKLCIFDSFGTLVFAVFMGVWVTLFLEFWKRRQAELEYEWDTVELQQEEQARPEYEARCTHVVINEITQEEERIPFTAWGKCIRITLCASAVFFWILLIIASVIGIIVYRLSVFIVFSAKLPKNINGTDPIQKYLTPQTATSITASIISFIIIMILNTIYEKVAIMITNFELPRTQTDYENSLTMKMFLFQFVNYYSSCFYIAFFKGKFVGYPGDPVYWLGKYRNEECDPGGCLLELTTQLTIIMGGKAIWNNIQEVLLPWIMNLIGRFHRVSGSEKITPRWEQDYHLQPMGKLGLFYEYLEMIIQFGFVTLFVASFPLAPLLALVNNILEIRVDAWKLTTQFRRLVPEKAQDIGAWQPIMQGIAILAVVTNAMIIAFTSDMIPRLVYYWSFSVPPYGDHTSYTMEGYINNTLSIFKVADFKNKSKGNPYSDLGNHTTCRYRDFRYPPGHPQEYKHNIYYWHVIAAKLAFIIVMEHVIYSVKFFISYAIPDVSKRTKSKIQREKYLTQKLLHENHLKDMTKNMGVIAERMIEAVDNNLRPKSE
Experiment: Lact C2 assay (measuring phosphatidylserine externalization scramblase function)
Type: cell-based
Details: FRT cells expressing human ANO6 (variant 5), ionomycin 10 µM, Lact-C2-GFP fluorescence, average of three tests; for inhibition at 0.05 µM / inhibition at 0.1 µM / inhibition at 1 µM: FRT; for inhibition at 0.05 µM / % Inhibition 50 nM: compound 50 nM; for inhibition at 0.05 µM: read-out: % Inhibition 50 nM; for inhibition at 1 µM: compound 1 µM, read-out: % Inhibition 1 µM
Method: Ionomycin (Alomonelab, cat. # I-700), DAPI (Sigma- Aldrich, cat. # D8417), paraformaldehyde (Biosesang, cat. #P2031), Lionheart FX automated fluorescence microscope (BioTek), Gen5™ software program (BioTek), and Image J analysis software program.
After the incubation, the cells were treated with compounds dissolved in DMSO to 1% v/v in each well at each concentration (50 nM, 100 nM, and 1 µM) and reacted for 10 minutes. Thereafter, each well was treated with ionomycin to a final concentration of 10 µM, allowed to react for 10 minutes, and then washed with 200 µL PBS. After washing, each well was treated with 50 µL of Lactadherin-C2 (Lact-C2)-GFP mixed in DMEM medium to a final concentration of 500 nM to stain phosphatidylserine, and cultured at 37°C for 10 minutes. After completion of the reaction, the cells were washed with 200 µL PBS, and fixed with 4% paraformaldehyde for 5 minutes at room temperature. For morphological analysis, DAPI solution was added, and the cells were incubated for 15 minutes, followed by washing with PBS. The fluorescence intensity of Lact-C2-GFP bound to phosphatidylserine on the cell surface was measured using an automated fluorescence microscope. For quantitative analysis of the fluorescence intensity of Lact-C2-GFP, BioTek Gen5™ software and Image J analysis software programs were used.
Phosphatidylserine externalization inhibitory activity (%) by the compound was calculated through the following analysis method. Specifically, the background fluorescence value was subtracted from the measured Lact-C2-GFP fluorescence value, and the fluorescence value of the ionomycin non-treatment group and the ionomycin-treatment group in the same row where each test group was located in a 96-well microplate were calculated. In order to calculate the inhibitory activity (%) by the compound, the relative inhibitory activity was calculated by setting the compound and ionomycin non-treatment group to 100% inhibitory activity and the ionomycin alone treatment group to 0% inhibitory activity.

| inhibition at 0.05 µM [%] | inhibition at 0.1 µM (compound 100 nM) [%] | inhibition at 1 µM [%] | % Inhibition 50 nM | % Inhibition 100 nM (compound 100 nM) | Structure (SMILES) |
| --- | --- | --- | --- | --- | --- |
| > 60 | > 60 | > 60 | – | – | c1cnc(-c2ccc(Nc3cccc(-c4nc5ccccc5[nH]4)c3)cc2)nc1 [Example 26, N-[3-(1H-benzo[d]imidazol-2-yl)phenyl]-4-(pyrimidin-2-yl)aniline] |
| > 60 | > 60 | > 60 | – | – | FC(F)(F)c1ccc2nc(-c3cccc(Nc4ccc(-c5ncccn5)cc4)c3)[nH]c2c1 [Example 27, N-[4-(pyrimidin-2-yl)phenyl]-3-[6-(trifluoromethyl)-1H-benzo[d]imidazol-2-yl]aniline] |
| > 60 | > 60 | – | – | – | FC(F)(F)c1ccc2nc(-c3cccc(Nc4ccc(-c5cncnc5)cc4)c3)[nH]c2c1 [Example 28, N-[4-(pyrimidin-5-yl)phenyl]-3-[6-(trifluoromethyl)-1H-benzo[d]imidazol-2-yl]aniline] |
| > 60 | > 60 | – | – | – | FC(F)(F)c1ccc2nc(-c3cccc(Nc4ccc(-c5cnccn5)cc4)c3)[nH]c2c1 [Example 29, N-[4-(pyrazin-2-yl)phenyl]-3-[6-(trifluoromethyl)-1H-benzo[d]imidazol-2-yl]aniline] |
| 30 to 60 | 30 to 60 | – | – | – | c1cc(Nc2ccc(-c3cncnc3)cc2)cc(-c2nc3ccccc3[nH]2)c1 [Example 30, 3-(1H-benzo[d]imidazol-2-yl)-N-(4-(pyrimidin-5-yl)phenyl)aniline] |
| 30 to 60 | > 60 | – | – | – | c1cncc(-c2ccc(Nc3cccc(-c4nc5ccccc5[nH]4)c3)cc2)c1 [Example 31, N-[3-(1H-benzo[d]imidazol-2-yl)phenyl]-4-(pyridin-3-yl)aniline] |
| 30 to 60 | 30 to 60 | – | – | – | c1cc(Nc2ccc(-c3cnccn3)cc2)cc(-c2nc3ccccc3[nH]2)c1 [Example 32, 3-(1H-benzo[d]imidazol-2-yl)-N-(4-(pyrazin-2-yl)phenyl)aniline] |
| 30 to 60 | 30 to 60 | – | – | – | c1cc(Nc2ccc(-c3ccncc3)cc2)cc(-c2nc3ccccc3[nH]2)c1 [Example 33, N-[3-(1H-benzo[d]imidazol-2-yl)phenyl]-4-(pyridin-4-yl)aniline] |
| > 60 | > 60 | – | – | – | Cc1cscc1-c1cnc(Nc2cccc(-c3nc4ccccc4[nH]3)c2)nc1 [Example 43, N-(3-(1H-benzo[d]imidazol-2-yl)phenyl)-5-(4-methylthiophen-3-yl)pyrimidin-2-amine] |
| > 60 | > 60 | – | – | – | c1ccc(-c2cnc(Nc3cccc(-c4nc5ccccc5[nH]4)c3)nc2)nc1 [Example 44, N-(3-(1H-benzo[d]imidazol-2-yl)phenyl)-5-(pyridin-2-yl)pyrimidin-2-amine] |
| > 60 | > 60 | – | – | – | Fc1ccc2nc(-c3cccc(Nc4ncc(-c5ccccn5)cn4)c3)[nH]c2c1 [Example 45, N-[3-(6-fluoro-1H-benzo[d]imidazol-2-yl)phenyl]-5-(pyridin-2-yl)pyrimidin-2-amine] |
| – | > 60 | – | B (30 to 60% inhibition) | – | Fc1ccc2nc(-c3cccc(Nc4ncc(-c5cccnn5)cn4)c3)[nH]c2c1 [Example 51, N-(3-(6-fluoro-1H-benzo[d]imidazol-2-yl)phenyl)-5-(pyridazin-3-yl)pyrimidin-2-amine] |
| > 60 | > 60 | – | – | – | FC(F)(F)c1ccc2nc(-c3cccc(Nc4ncc(-c5cccnn5)cn4)c3)[nH]c2c1 [Example 52, 5-(pyridazin-3-yl)-N-(3-(6-(trifluoromethyl)-1H-benzo[d]imidazol-2-yl)phenyl)pyrimidin-2-amine] |
| 30 to 60 | 30 to 60 | – | – | – | c1cc(Nc2ncc(-c3cccnn3)cn2)cc(-c2nc3ccccc3[nH]2)c1 [Example 53, N-[3-(1H-benzo[d]imidazol-2-yl)phenyl]-5-(pyridazin-3-yl)pyrimidin-2-amine] |
| – | – | – | A (> 60% inhibition) | A (> 60% inhibition) | Fc1ccc2nc(-c3cccc(Nc4ncc(-c5cccnn5)cn4)c3)[nH]c2c1 [Example 55, N-(3-(6-fluoro-1H-benzo[d]imidazol-2-yl)phenyl)-5-(pyridazin-3-yl)pyrimidin-2-amine] |
| 30 to 60 | > 60 | – | – | – | c1cc(Nc2ccc(-c3cccnn3)cn2)cc(-c2nc3ccccc3[nH]2)c1 [Example 56, N-[3-(1H-benzo[d]imidazol-2-yl)phenyl]-5-(pyridazin-3-yl)pyridin-2-amine] |
| > 60 | > 60 | – | – | – | FC(F)(F)c1ccc2nc(-c3cccc(Nc4ccc(-c5ccccn5)cn4)c3)[nH]c2c1 [Example 57, N-{3-[6-(trifluoromethyl)-1H-benzo[d]imidazol-2-yl]phenyl}-[2,3'-bipyridin]-6'-amine] |
| > 60 | > 60 | – | – | – | Fc1ccc2nc(-c3cccc(Nc4ccc(-c5ccccn5)cn4)c3)[nH]c2c1 [Example 58, N-(3-(6-fluoro-1H-benzo[d]imidazol-2-yl)phenyl)-[2,3'-bipyridine]-6'-amine] |
| > 60 | > 60 | – | – | – | c1ccc(-c2ccc(Nc3cccc(-c4nc5ccccc5[nH]4)c3)nc2)nc1 [Example 59, N-[3-(1H-benzo[d]imidazol-2-yl)phenyl]-[2,3'-bipyridin]-6'-amine] |
| > 60 | > 60 | – | – | – | COC(=O)c1ccc2nc(-c3cccc(Nc4ccc(-c5cccnn5)cc4)c3)[nH]c2c1 [Example 61, methyl 2-(3-((4-(pyridazin-3-yl)phenyl)amino)phenyl)-1H-benzo[d]imidazol-6-carboxylate] |
| > 60 | > 60 | – | – | – | FC(F)(F)c1ccc2nc(-c3cccc(Nc4ncc(-c5ncccn5)cn4)c3)[nH]c2c1 [Example 63, N-{3-[6-(trifluoromethyl)-1H-benzo[d]imidazol-2-yl]phenyl}-[2,5'-bipyrimidin]-2'-amine] |
| 30 to 60 | 30 to 60 | – | – | – | Clc1cc2[nH]c(-c3cccc(Nc4ncc(-c5ccccn5)cn4)c3)nc2cn1 [Example 64, N-(3-(6-chloro-1H-imidazolo[4,5-c]pyridin-2-yl)phenyl)-5-(pyridin-2-yl)pyrimidin-2-amine] |
| > 60 | > 60 | – | – | – | c1cc(Nc2ccc(-c3ccncn3)cn2)cc(-c2nc3ccccc3[nH]2)c1 [Example 68, N-[3-(1H-benzo[d]imidazol-2-yl)phenyl]-5-(pyrimidin-4-yl)pyridin-2-amine] |
| – | 30 to 60 | – | – | – | c1cnc(-c2ccc(Nc3cccc(-c4nc5ccccc5[nH]4)c3)nc2)nc1 [Example 69, N-(3-(lH-benzo[d]imidazol-2-yl)phenyl)-5-(pyrimidin-2-yl)pyridin-2-amine] |
| > 60 | > 60 | – | – | – | Fc1ccc2nc(-c3cccc(Nc4ccc(-c5ccncn5)cn4)c3)[nH]c2c1 [Example 72, N-(3-(6-fluoro-1H-benzo[d]imidazol-2-yl)phenyl)-5-(pyrimidin-4-yl)pyridin-2-amine] |
